Assay results as given in patent US20100227841A1, “Patient populations and treatment methods” (Harbor BioSciencs, Inc., priority 2008, published 2010).

Columns and labels:
[1] = test system: patients having type 2 diabetes; experiment: Phase II double-blinded placebo controlled 12-week trial in type 2 diabetes patients on metformin; format: in vivo, human; settings: for Fasting C-peptide Change from baseline / Fasting Glucose Change from baseline / HbA1c Change from baseline / LDL Cholesterol change from baseline / Total Cholesterol change from baseline / Weight change from baseline / HOMA2% insulin sensitivity change from baseline / HOMA2% β cell function change from baseline / HOMA2 Insulin resistance change from baseline: 5 mg twice per day + metformin; for HOMA2% insulin sensitivity change from baseline / HOMA2% β cell function change from baseline / HOMA2 Insulin resistance change from baseline: calculated using C-peptide
Experimental: Patients having type 2 diabetes were evaluated for their baseline BMI and levels of MCP1, insulin and C peptide. The effect of treatment with 17α-ethynylandrost-5-ene-3β,7β,17β-triol (5 mg administered orally twice per day for 84 days) on total cholesterol, LDL cholesterol, hemoglobin A1c (HbA1c) plus metformin (500-2250 mg/day, which was administered in one or two doses per day for 84 days), weight, and other biological responses is shown in the tables below. The effect of treatment in all treated patients was compared with the effect of the same treatment in the responder population, characterized as having a BMI>27.99 (overweight or obese), insulin resistant (C-peptide >1.99 ng/mL or essentially normal insulin >3.99 μU/mL to about 29 μU/mL with hyperglycemia), and having an elevated serum MCP1>399.99 pg/mL, indicating a state of systemic inflammation. The responder patients were a subset of all patients were treated.
The Phase II, double-blinded placebo controlled 12-week dosing trial of example 4 enrolled 96 subjects with a hemoglobin A1c (HbA1c) level in excess of 7.5 percent and were being treated with a stable metformin dose as described above. The primary objectives of this trial were to evaluate the safety and tolerance of 17α-ethynylandrost-5-ene-3β,7β,17β-triol, 10 mg per day (5 mg twice daily), compared to placebo from baseline to week 12 and to evaluate the change in HbA1c from baseline to week 12 in the 17α-ethynylandrost-5-ene-3β,7β,17β-triol treated group when compared to the placebo group.
A retrospective analysis of data was performed on the subpopulation of patients that represented an obese, insulin-resistant, diabetic population. This analysis included patients who met the following criteria at baseline: BMI greater than or equal to 28; fasting plasma insulin levels greater than or equal to 4 μU/mL; fasting plasma C-peptide levels greater than or equal to 2 ng/mL; and serum monocyte chemoattractant protein-1 (MCP1) levels greater than or equal to 400 pg/mL. This phenotype represented 35% of all 89 patients with values reported for these parameters at baseline. Twenty-two individuals with this phenotype completed the 84 days of dosing. […] These changes in secondary indicators of activity were consistent with the observed decreases in HbA1c and glucose in this diabetic subpopulation.

[2] = test system: RAW264.7 macrophage cells; experiment: Macrophage chemotaxis assay with 3T3-L1 adipocyte conditioned medium; format: cell-based; settings: p<0.05
Experimental: The macrophage chemotaxis assay was conducted with differentiated 3T3-L1 adipocytes (day +11 post differentiation) incubated for 24 hours with compounds (10 ng/mL TNFα with or without 100 nM 17α-ethynylandrost-5-ene-3β,7β,17β-triol) or vehicle in DMEM with 0.2% FFA- and endotoxin-free BSA. Conditioned medium (CM) was collected and kept frozen in single-use aliquots. For the chemotaxis assay, 600 μl/well of adipocyte CM was aliquoted into 24-well tissue culture plates. 2×10^5 RAW264.7 macrophage cells resuspended in DMEM containing 0.2% BSA were plated in the upper transwell chamber ([…], 24-transwell format; Corning, Lowell, Mass.). After 3 hours of migration, the RAW264.7 cells were fixed in formalin and stained with DAPI. Cells in the upper chamber that had not migrated were removed. Cells found on the filter facing the lower chamber were counted as cells having performed chemotaxis and quantified with the Simple PCI imaging software (Compix Inc., Cranberry Township, Pa.).

[3] = test system: CCR2 / MCP1; experiment: Effects of treatment on CCR2 expression and circulating MCP1; format: in vivo
Description: The treatment methods described herein may involve treating patient subsets having elevated MCP1 (monocyte chemoattractant protein 1, or sometimes referred to as CCL2, which is CC chemokine receptor 2 ligand). CC chemokine receptor 2 (CCR2) is the receptor for MCP1. […] These effects are consistent with biological responses that correspond to reduced progression and/or at least partial reversal of cardiovascular plaque accumulation. That provides a basis for treating, e.g., slowing the progression, of arteriosclerosis and atherosclerosis. Such treatments would be effective in patients having a dyslipidemia such as hypercholesterolemia and/or hypertriglyceridemia with or without also having an arteriosclerosis condition such as atherosclerosis. Such patients will preferably have BMI and fasting plasma insulin levels as described in the embodiments described below (e.g., in embodiment 1, 9, 10, 17 or 19), examples or original claims, e.g., a BMI of ≧28 and insulin of ≧4 μU/mL. Any of these patients may also have hyperglycemia or overt diabetes. Patients with elevated MCP1 are also treatable for preventing or reducing the severity of cardiovascular disease, including myocardial infarction.

[4] = retrospective subpopulation, 84 days, compared to placebo, non-significant
[5] = TNFα-treated adipocyte CM, adipocytes pretreated

C#C[C@]1(O)CC[C@H]2[C@@H]3[C@@H](O)C=C4C[C@@H](O)CC[C@]4(C)[C@H]3CC[C@@]21C [17α-ethynylandrost-5-ene-3β,7β,17β-triol]
Fasting C-peptide Change from baseline ([1]; All patients, day 29): -0.2 ng/mL
Fasting Glucose Change from baseline ([1]; All patients, day 29): -7.5 mg/dL
HbA1c Change from baseline ([1]; All patients, day 29): 0 % Hb
LDL Cholesterol change from baseline ([1]; All patients, day 29): 0.5 mg/dL
Total Cholesterol change from baseline ([1]; All patients, day 29): -0.5 mg/dL
Weight change from baseline ([1]; All patients, day 29): -0.4136 kg
Fasting C-peptide Change from baseline ([1]; All patients, day 57): -0.2 ng/mL
Fasting Glucose Change from baseline ([1]; All patients, day 57): 0 mg/dL
HbA1c Change from baseline ([1]; All patients, day 57): 0.1 % Hb
LDL Cholesterol change from baseline ([1]; All patients, day 57): -2 mg/dL
Total Cholesterol change from baseline ([1]; All patients, day 57): -5.5 mg/dL
Weight change from baseline ([1]; All patients, day 57): -0.4546 kg
Fasting C-peptide Change from baseline ([1]; All patients, day 84): -0.05 ng/mL
Fasting Glucose Change from baseline ([1]; All patients, day 84): -4.25 mg/dL
HbA1c Change from baseline ([1]; All patients, day 84): 0.15 % Hb
LDL Cholesterol change from baseline ([1]; All patients, day 84): 4.5 mg/dL
Total Cholesterol change from baseline ([1]; All patients, day 84): 3 mg/dL
Weight change from baseline ([1]; All patients, day 84): -0.03864 kg
HOMA2% insulin sensitivity change from baseline ([1]; All patients, day 29): 4.2 % S
HOMA2% β cell function change from baseline ([1]; All patients, day 29): 0.8 % b
HOMA2 Insulin resistance change from baseline ([1]; All patients, day 29): −0.1453 IR
HOMA2% insulin sensitivity change from baseline ([1]; All patients, day 57): 1.75 % S
HOMA2% β cell function change from baseline ([1]; All patients, day 57): −2.15 % b
HOMA2 Insulin resistance change from baseline ([1]; All patients, day 57): −0.0518 IR
HOMA2% insulin sensitivity change from baseline ([1]; All patients, day 84): −1.45 % S
HOMA2% β cell function change from baseline ([1]; All patients, day 84): 5.6 % b
HOMA2 Insulin resistance change from baseline ([1]; All patients, day 84): 0.02309 IR
HbA1c Change from baseline ([1]; Responder patients (BMI>27.99, insulin resistant, MCP1>399.99 pg/mL), day 29): −0.15 % Hb
Fasting C-peptide Change from baseline ([1]; Responder patients, day 29): -0.2 ng/mL
Fasting Glucose Change from baseline ([1]; Responder patients, day 29): -17.5 mg/dL
LDL Cholesterol change from baseline ([1]; Responder patients, day 29): -8.5 mg/dL
Total Cholesterol change from baseline ([1]; Responder patients, day 29): -0.5 mg/dL
Weight change from baseline ([1]; Responder patients, day 29): -0.3727 kg
Fasting C-peptide Change from baseline ([1]; Responder patients, day 57): 0 ng/mL
Fasting Glucose Change from baseline ([1]; Responder patients, day 57): -7 mg/dL
HbA1c Change from baseline ([1]; Responder patients, day 57): −0.1 % Hb
LDL Cholesterol change from baseline ([1]; Responder patients, day 57): -11.5 mg/dL
Total Cholesterol change from baseline ([1]; Responder patients, day 57): -18.5 mg/dL
Weight change from baseline ([1]; Responder patients, day 57): -0.925 kg
Fasting C-peptide Change from baseline ([1]; Responder patients, day 84): 0.25 ng/mL
Fasting Glucose Change from baseline ([1]; Responder patients, day 84): -13 mg/dL
HbA1c Change from baseline ([1]; Responder patients, day 84): −0.425 % Hb
LDL Cholesterol change from baseline ([1]; Responder patients, day 84): -7.5 mg/dL
Total Cholesterol change from baseline ([1]; Responder patients, day 84): -14.5 mg/dL
Weight change from baseline ([1]; Responder patients, day 84): -1.33 kg
HOMA2% insulin sensitivity change from baseline ([1]; Responder patients, day 29): 3.9 % S
HOMA2% β cell function change from baseline ([1]; Responder patients, day 29): 2.1 % b
HOMA2 Insulin resistance change from baseline ([1]; Responder patients, day 29): −0.3061 IR
HOMA2% insulin sensitivity change from baseline ([1]; Responder patients, day 57): 1 % S
HOMA2% β cell function change from baseline ([1]; Responder patients, day 57): 5.3 % b
HOMA2 Insulin resistance change from baseline ([1]; Responder patients, day 57): −0.04016 IR
HOMA2% insulin sensitivity change from baseline ([1]; Responder patients, day 84): −4.4 % S
HOMA2% β cell function change from baseline ([1]; Responder patients, day 84): 16.3 % b
HOMA2 Insulin resistance change from baseline ([1]; Responder patients, day 84): 0.2265 IR
HbA1c, treatment vs placebo ([1]; entire 72 patient population that completed dosing on day 84): no statistical difference
decrease in HbA1c ([1]; retrospective subpopulation (BMI>=28, insulin>=4 μU/mL, C-peptide>=2 ng/mL, MCP1>=400 pg/mL), 84 days, compared to placebo, p=0.06): −0.53%
decrease in HOMA2 insulin resistance [1, 4]: −0.65 IR
decrease in fasting plasma C-peptide [1, 4]: -0.43 ng/mL
decrease in fasting plasma insulin [1, 4]: −0.48 μU/mL
decrease in fructosamine [1, 4]: -25.75 µmol/L
increase in HOMA2 beta cell function [1, 4]: 17.95 % B
increase in HOMA2 insulin sensitivity [1, 4]: 11.3 % S
decrease in fasting plasma glucose ([1]; retrospective subpopulation, 84 days, compared to placebo, p=0.09): -28.75 mg/dL
sensitivity analysis using last observation carried forward ([1]; subpopulation individuals who completed at least 29 days of dosing): showed improvement
macrophage secretion of CCL5/RANTES [2, 5]: significantly decreased
macrophage secretion of MCP-1/CCL2 [2, 5]: significantly decreased
reduction of macrophage migration stimulated by CM from TNFα-treated adipocytes ([2]; adipocytes pretreated with 100 nM): ~30%
expression levels of CCR2 ([3]; in vivo): decrease
MCP1 in circulation ([3]; typically protein levels in serum, e.g. ELISA): trend to decrease
